Data: the supplement of paper PMC3937590

Key:
Test in all cases: -log10 GI50 (growth inhibition 50%) (-log10(M)); higher = more potent growth inhibition
600MPE = test system: 600MPE
How it was run: (§1)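 Dose-response data came from breast cancer cell lines exposed to each compound for 72 hours at nine doses in 1:5 serial dilution, in triplicate, and read by luminescence relative to a time-zero plate. A Gompertz curve fitted by nonlinear least squares gave GI50, the molar concentration for the set level of growth inhibition, reported as its negative logarithm to base 10. Where a value equals the top dose, it carries a < qualifier.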

AU565 = test system: AU565
How it was run: as §1

BT20 = test system: BT20
How it was run: as §1

BT474 = test system: BT474
How it was run: as §1

BT483 = test system: BT483
How it was run: as §1

CAMA1 = test system: CAMA1
How it was run: as §1

HCC1143 = test system: HCC1143
How it was run: as §1

HCC1187 = test system: HCC1187
How it was run: as §1

HCC1806 = test system: HCC1806
How it was run: as §1

HCC38 = test system: HCC38
How it was run: as §1

HS578T = test system: HS578T
How it was run: as §1

MCF7 = test system: MCF7
How it was run: as §1

MDAMB175VII = test system: MDAMB175VII
How it was run: as §1

MDAMB415 = test system: MDAMB415
How it was run: as §1

MDAMB453 = test system: MDAMB453
How it was run: as §1

SKBR3 = test system: SKBR3
How it was run: as §1

SUM159PT = test system: SUM159PT
How it was run: as §1

SUM229PE = test system: SUM229PE
How it was run: as §1

T47D = test system: T47D
How it was run: as §1

ZR751 = test system: ZR751
How it was run: as §1

Row | SMILES | -log10 GI50 (BT20) | -log10 GI50 (BT474) | -log10 GI50 (BT483) | -log10 GI50 (HCC1143) | -log10 GI50 (HCC1187) | -log10 GI50 (HCC1806) | -log10 GI50 (HCC38) | -log10 GI50 (MCF7) | -log10 GI50 (MDAMB175VII) | -log10 GI50 (MDAMB415) | -log10 GI50 (MDAMB453) | -log10 GI50 (SKBR3) | -log10 GI50 (T47D) | -log10 GI50 (600MPE) | -log10 GI50 (AU565) | -log10 GI50 (CAMA1) | -log10 GI50 (HS578T) | -log10 GI50 (SUM159PT) | -log10 GI50 (SUM229PE) | -log10 GI50 (ZR751)
1 | CS(=O)(=O)CCNCc1ccc(-c2ccc3ncnc(Nc4ccc(OCc5cccc(F)c5)c(Cl)c4)c3c2)o1 [Lapatinib] | < 4.78 | 6.4 | < 4.78 | < 4.78 | < 4.78 | < 4.78 | < 4.78 | < 4.78 | 6.04 | < 4.78 | 5.29 | 6.39 | 4.78 | < 4.78 | 6.4 | < 4.78 | < 4.78 | < 4.78 | 4.86 | < 4.78
2 | COc1cc2c(Nc3ccc(NC(=O)c4ccccc4)cc3)ncnc2cc1OCCCN1CCOCC1 | 5.33 | 4.29 | 4.56 | 6.07 | 6.39 | < 4 | 6.21 | < 4.48 | 5.26 | 5.45 | < 4.3 | 4.76 | 4.94 | < 4 | 5.82 | 5.02 | 5.88 | 6.14 | 5.93 | 5.47
3 | O=S(=O)(CC1CS1)c1ccc(Oc2ccccc2)cc1 (stereo not given) [SB-3CT] | 4.21 | 4.99 | 4.59 | < 4 | 4.83 | < 4 | 4.31 | < 4 | < 4 | 4.77 | < 3.78 | < 4 | < 4 | < 4 | < 4 | < 4 | 4.42 | 4.85 | < 4 | < 3.78
4 | CCCC(CCC)C(=O)O [Valproic acid] | 2.44 | 3.03 | 3.01 | 2.66 | 2.78 | 2.58 | 3.05 | 2.64 | 2.96 | 3.06 | 3.15 | 3.04 | 2.53 | 2.52 | 2.85 | 2.79 | 2.32 | 2.91 | 2.65 | 2.78
5 | COc1ncc(-c2ccc3nccc(-c4ccnnc4)c3c2)cc1NS(=O)(=O)c1ccc(F)cc1F | 7.8 | 8.36 | 8.94 | 7.43 | 8.3 | 7.54 | 7.61 | 8.14 | 8.73 | 5.86 | 8.33 | 8.41 | 8.45 | 8.22 | 8.1 | 7.08 | 7.13 | 7.63 | 8.59 | 8.09
6 | COc1cc([C@@H]2c3cc4c(cc3[C@@H](O[C@@H]3O[C@@H]5CO[C@@H](C)O[C@H]5[C@H](O)[C@H]3O)[C@H]3COC(=O)[C@H]23)OCO4)cc(OC)c1O [Etoposide] | 5.48 | 4.63 | 5.37 | 5.29 | 6.21 | 5.51 | 6.54 | 5.13 | 4.19 | 4.56 | 5.3 | 5.92 | 5.99 | 5.26 | 6.2 | 5.31 | 5.22 | 6.11 | 6.04 | 5.68
7 | NS(=O)(=O)OC[C@@H]1C[C@@H](n2ccc3c(N[C@H]4CCc5ccccc54)ncnc32)C[C@@H]1O [MLN4924] | 5.7 | 6.24 | 5.53 | 6.58 | 6.09 | 7.67 | 7.3 | 7.16 | 6.64 | 6.95 | 5.81 | 6.82 | 6.93 | 6.49 | 6.74 | 7.29 | 6.63 | 6.31 | 6.59 | 5.32
8 | O=C1c2ccccc2-[n+]2ccc3c([nH]c4ccccc43)c21 [Fascaplysin] | 6.51 | 6.73 | 7.18 | 6.56 | 7.83 | 6.59 | 6.56 | 6.72 | 6.68 | 7.22 | 7.06 | 6.65 | 6.34 | 6.55 | 6.95 | 6.61 | 5.98 | 6.37 | 6.51 | 6.45
9 | CC(C(C)N1CC(=O)NC(=O)C1)N1CC(=O)NC(=O)C1 (stereo not given) [ICRF-193] | < 4.3 | < 4.3 | < 4.3 | < 4.3 | 6.1 | < 4.3 | 6.53 | < 4.48 | < 4.3 | 5.39 | 4.88 | 5.22 | < 4.48 | < 4.3 | 6.14 | < 4.3 | 5.63 | 6.53 | 6.14 | 6.07
10 | C[C@]12O[C@H](C[C@]1(O)CO)n1c3ccccc3c3c4c(c5c6ccccc6n2c5c31)CNC4=O [Lestaurtinib] | 5.53 | 6.61 | 6.21 | 6.48 | 6.13 | 6.79 | 7.06 | 5.84 | 6.09 | 6.46 | 6.19 | 6 | 5.25 | 5.77 | 6.07 | 5.42 | 5.99 | 6.55 | 6.48 | 5.75

Continued, in another order:

Row | -log10 GI50 (BT20) | -log10 GI50 (BT474) | -log10 GI50 (BT483) | -log10 GI50 (HCC1143) | -log10 GI50 (HCC1187) | -log10 GI50 (HCC1806) | -log10 GI50 (HCC38) | -log10 GI50 (MCF7) | -log10 GI50 (MDAMB175VII) | -log10 GI50 (MDAMB415) | -log10 GI50 (MDAMB453) | -log10 GI50 (SKBR3) | -log10 GI50 (T47D) | SMILES | -log10 GI50 (600MPE) | -log10 GI50 (AU565) | -log10 GI50 (CAMA1) | -log10 GI50 (HS578T) | -log10 GI50 (SUM159PT) | -log10 GI50 (SUM229PE) | -log10 GI50 (ZR751)
11 | < 3.48 | < 3.48 | 3.63 | 7.62 | 5.59 | 5.76 | < 3.48 | 7.34 | < 3.48 | < 3.48 | < 3.48 | 6.28 | < 3.48 | CN(Cc1cnc2nc(N)nc(N)c2n1)c1ccc(C(=O)N[C@@H](CCC(=O)O)C(=O)O)cc1 [Methotrexate] | 5.39 | 5.36 | 6.97 | < 3.48 | < 3.48 | < 3.48 | 7.31
12 | 4.89 | 4.52 | 3.82 | 4.53 | 4.6 | 5.15 | 4.45 | 4.82 | 5.01 | 4.64 | 4.95 | 4.63 | 4.79 | Cc1ccc(NC(=O)c2ccc(CN3CCN(C)CC3)cc2)cc1Nc1nccc(-c2cccnc2)n1 [Imatinib] | 4.62 | 4.72 | 4.71 | 4.1 | 4.75 | 5.27 | 4.56
13 | 5.42 | 6.57 | 6.27 | 6.28 | 6.19 | 6.16 | 6.77 | 5.74 | 5.41 | 6.22 | 6.56 | 5.95 | 6.06 | O=C(/C=C/C#Cc1cccc(NS(=O)(=O)c2ccccc2)c1)NO [Oxamflatin] | 5.53 | 6.19 | 6.09 | 5.86 | 6.5 | 5.74 | 5.65
14 | 4.79 | 4.78 | 4.73 | 5.16 | 5.26 | 5.3 | 5.24 | 5.23 | 5.18 | 5.25 | 5.3 | 5.17 | 4.94 | CCN(CC)CCNC(=O)c1c(C)[nH]c(/C=C2\C(=O)Nc3ccc(F)cc32)c1C [Sunitinib malate] | 5.4 | 5.42 | 5.07 | 5.37 | 5.81 | 5.46 | 4.88
15 | < 4.48 | < 4.18 | < 4.48 | < 4.48 | < 4.48 | < 4.48 | < 4.48 | < 4.48 | < 4.48 | < 4.18 | < 4.18 | < 4.48 | < 4.48 | CSCC[C@H](NC(=O)[C@H](Cc1ccccc1)NC[C@@H](NC[C@@H](N)CS)C(C)C)C(=O)O [FTase inhibitor I] | < 4.48 | < 4.48 | < 4.48 | < 4.48 | 5 | < 4.48 | < 4.18
16 | 4.05 | 4.3 | 4.44 | 4.15 | 4.94 | 4.73 | 4.52 | 4.3 | 3.96 | < 3.78 | 3.8 | 3.96 | 4.52 | O=c1cc(-c2ccccc2)oc2cc(O)c(O)c(O)c12 [Baicalein] | < 3.78 | 4.38 | 4.39 | 4.32 | 3.82 | 4.08 | 4.38
17 | 4.68 | 5.01 | 5 | 4.77 | 5.32 | 4.97 | 5.22 | 5.18 | 5.3 | 4.73 | 5.22 | 5.21 | 5.46 | CC(/C=C/C(=O)NO)=C\[C@@H](C)C(=O)c1ccc(N(C)C)cc1 [Trichostatin A] | 5.19 | 5.44 | 5.57 | 4.77 | 5.23 | 4.83 | 4.74
18 | 7.77 | 7.29 | 6.08 | 7.29 | 7.58 | 7.55 | 7.33 | 7.42 | 5.84 | 7.05 | 7.37 | 7.49 | 7.08 | Cc1ccc(C(=O)N(CCCN)[C@@H](c2nc3cc(Cl)ccc3c(=O)n2Cc2ccccc2)C(C)C)cc1 [Ispinesib] | 7.69 | 7.65 | 7.51 | 6.51 | 7.33 | 7.48 | 7.05
19 | 5.16 | 4.9 | 5.01 | 5.13 | 4.85 | 5.11 | 4.78 | 4.8 | 5.15 | 5.25 | 5.2 | 5.09 | 4.88 | Cc1c(O)cccc1C(=O)N[C@@H](CSc1ccccc1)[C@H](O)CN1C[C@H]2CCCC[C@H]2C[C@H]1C(=O)NC(C)(C)C [Nelfinavir] | 5.05 | < 4.48 | 5.37 | 5.07 | 4.76 | 4.84 | 4.94
20 | 4.93 | 5.41 | 4.77 | < 4.18 | 5.77 | 5.25 | < 4.18 | 4.8 | 5.29 | < 4.48 | 4.69 | 4.4 | 5.25 | O=C1NC(=O)/C(=C/c2ccc(-c3ccc(F)cc3O)o2)S1 | 5.19 | 4.88 | < 4.18 | 5.06 | 5.23 | < 4.18 | 5.2
21 | 6.19 | 6.5 | 5.67 | 6.01 | 5.4 | 6.5 | 6.48 | 6.22 | 6.6 | 6.28 | 6.75 | 6.49 | 5.66 | COC(=O)Nc1nc2cc(C(=O)c3ccccc3)ccc2[nH]1 [Mebendazole] | 5 | 6.96 | 6.33 | 6.46 | 6.69 | 5.68 | 6.62
22 | 4.45 | 4.58 | 4.52 | < 4 | 5.39 | < 4.3 | 4.29 | < 4.3 | 4.85 | 4.6 | < 4.3 | 4.73 | < 4.3 | COc1cccc(-c2cc(=O)c3ccccc3o2)c1N | < 4.3 | 5.12 | 4.32 | < 4.3 | 4.03 | < 4.3 | < 4.3
